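Values below derive from 48-hour exposures of cells grown in 96-well plates, with endpoints linearly interpolated between the two concentrations bracketing the appropriate inhibition level. At the TGI there is no net growth.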
How the values were obtained:
Experiment in all cases: growth of human tumour cells (NCI), 48 h
[1] = tested on: NCI-H226 lung
[2] = tested on: M14 melanoma
[3] = tested on: TK-10 renal
[4] = tested on: OVCAR-4 ovarian
[5] = tested on: SF-268 CNS
[6] = tested on: MDA-MB-231 breast
[7] = tested on: HT29 colon
[8] = tested on: SK-MEL-5 melanoma
[9] = tested on: UACC-257 melanoma
[10] = tested on: SNB-19 CNS
[11] = tested on: HS 578T breast

Row | SMILES | TGI [1] [µM] | TGI [2] [µM] | TGI [3] [µM] | TGI [4] [µM] | TGI [5] [µM] | TGI [6] [µM] | TGI [7] [µM] | TGI [8] [µM] | TGI [9] [µM] | TGI [10] [µM] | TGI [11] [µM]
1 | O=[N+]([O-])c1ccc2c(c1)C1=C(CO2)Cc2ccccc2O1 | > 100 | 37.4 | 57 | > 100 | 63.5 | 51.4 | 88 | 29.7 | 33.5 | – | –
2 | S=c1sc2c(Cl)nc(Cl)nc2n1-c1ccccc1 | > 100 | 43 | > 100 | > 100 | 23.2 | – | > 100 | > 100 | > 100 | > 100 | –
3 | CC12CC(c3ccccc3O1)C(C(=O)Nc1ccc(Cl)cc1Cl)C(=O)N2 (stereo unspecified) | – | 31.9 | – | 39.6 | > 100 | – | > 100 | > 100 | > 100 | > 100 | 47.7
4 | Cc1c(N=Nc2ccc(Cl)cc2)c(-c2ccccc2)n(C2OC(CO)C(O)C(O)C2O)c(=S)c1C#N (stereo unspecified) | – | 31.2 | 44.4 | 36 | 44.8 | 39.2 | 33.7 | 25.8 | 54 | 25.2 | 51.6
5 | CCOC(=O)c1nnc2c(C(=O)OCC)c3ccccc3n2c1N | – | > 100 | > 100 | > 100 | > 100 | 87.8 | > 100 | 51.8 | 11.1 | > 100 | > 100
6 | O=C1/C(=C/c2ccccc2S)N=C(c2ccccc2)N1c1nc2c(Cl)cc(Cl)cc2s1 | – | 66.2 | > 100 | 73.8 | > 100 | 80.9 | 40.1 | 36 | > 100 | 84.5 | 75.8
7 | CCC(C)OC(=O)/C(Br)=C1/OC(=O)c2ccccc2-c2ccccc21 (stereo unspecified) | > 100 | > 100 | 43.2 | > 100 | > 100 | – | 84.5 | 56.2 | > 100 | > 100 | > 100
8 | CC#CCOC(=O)c1ccccc1OC(C)=O | > 100 | > 100 | > 100 | > 100 | > 100 | > 100 | – | > 100 | > 100 | > 100 | > 100
9 | O=C(O)CCC(NC(=O)c1ccc(Nc2nc3cc(C(F)(F)F)ccc3nc2-c2ccccc2)cc1)C(=O)O (stereo unspecified) | > 100 | – | – | > 100 | > 100 | – | > 69.8 | > 100 | > 100 | > 100 | –
10 | COC(CNC(=O)C(C)NC(=O)/C=C/c1ccccc1)OC (stereo unspecified) | > 100 | > 100 | > 100 | – | > 100 | > 100 | > 100 | > 100 | > 100 | > 100 | > 100
11 | CN(C)CCC(=O)c1ccccc1 | 98.4 | 52.6 | > 68.4 | > 74.1 | > 74.7 | – | > 67.3 | > 56.9 | > 59 | > 100 | –
12 | COc1ccc(S(=O)(=O)c2nnc(S(=O)(=O)Cc3ccccc3)s2)cc1 | – | 33.1 | 39.6 | > 100 | > 100 | 62.3 | 43.8 | 34.2 | 31.4 | 36.8 | 43
13 | CCCNC(=S)NNC(=O)CSc1nc(-c2ccccc2)c(-c2ccccc2)[nH]1 | > 100 | 89.6 | > 100 | > 100 | > 100 | – | > 100 | 62.1 | > 100 | > 100 | –
14 | Cc1ccccc1N1C(=O)C2C=CC(n3[nH]c(=O)n(Cc4ccccc4)c3=O)CC2C1=O (stereo unspecified) | > 100 | > 100 | > 100 | – | > 100 | – | > 100 | > 100 | > 100 | > 100 | –
15 | O=C(O)[C@@H]1CCS(=O)(=O)N1 | – | > 100 | > 100 | > 100 | > 100 | > 100 | > 100 | > 100 | > 100 | > 100 | –
16 | CN=C1CC2c3cc(OC)c(OC)cc3CCN2C2=C1C(=O)CC(C)(C)C2 (stereo unspecified) | > 100 | – | > 100 | – | > 100 | – | > 100 | > 100 | > 100 | > 100 | –
17 | CCCCCCOC(=O)/C=C/[C@]1(CO)C/C(=C/CC(C(C)C)C(C)C)C(=O)O1 | 16.7 | 25.1 | 14 | 36 | 23.5 | – | 20.8 | 20.3 | 31.6 | 22.6 | 22.1
18 | COc1cc(C2c3cc4c(cc3OC3(OC)COC(=O)C23)OCO4)cc(OC)c1OC(C)=O (stereo unspecified) | – | > 74.2 | > 100 | > 100 | > 100 | > 100 | > 37.5 | 34.6 | > 100 | > 100 | > 100
19 | OC1C#CCSCC#C/C=C\1 (stereo unspecified) | > 100 | > 100 | > 100 | > 100 | > 100 | > 100 | > 100 | – | > 100 | > 100 | > 100
20 | CC(C)C(=O)OCC1OC(n2c(Br)nc3c(=O)[nH]c(N)nc32)C(OC(=O)C(C)C)C1OC(=O)C(C)C (stereo unspecified) | > 100 | > 100 | – | – | > 100 | > 100 | 40.3 | – | > 100 | > 100 | > 100
21 | NNC(=O)c1n[nH]nc1C(=O)NN | – | > 100 | > 100 | – | > 100 | > 100 | 26.3 | > 100 | > 100 | > 100 | –
22 | O=C(/C=C/c1cc2ccccc2o1)N1CCN(c2ccccn2)CC1 | – | > 100 | > 100 | > 100 | > 100 | > 100 | > 100 | > 100 | > 100 | > 100 | > 100

— PubChem BioAssay (NCI)
